Reference: patent publication US20250011288A1 (BRISTOL-MYERS SQUIBB COMPANY, priority 2021, published 2025)

target: T1, human RXFP1 (Homo sapiens, UniProt Q9HBX9); assay: human RXFP1 (hRXFP1) HEK293 cAMP assay (HTRF); assay type: cell-based; details: HEK293 cells stably expressing human RXFP1, 30 min at room temperature
T1 construct: expressed in transfected cells
T1 sequence (Q9HBX9 1-757): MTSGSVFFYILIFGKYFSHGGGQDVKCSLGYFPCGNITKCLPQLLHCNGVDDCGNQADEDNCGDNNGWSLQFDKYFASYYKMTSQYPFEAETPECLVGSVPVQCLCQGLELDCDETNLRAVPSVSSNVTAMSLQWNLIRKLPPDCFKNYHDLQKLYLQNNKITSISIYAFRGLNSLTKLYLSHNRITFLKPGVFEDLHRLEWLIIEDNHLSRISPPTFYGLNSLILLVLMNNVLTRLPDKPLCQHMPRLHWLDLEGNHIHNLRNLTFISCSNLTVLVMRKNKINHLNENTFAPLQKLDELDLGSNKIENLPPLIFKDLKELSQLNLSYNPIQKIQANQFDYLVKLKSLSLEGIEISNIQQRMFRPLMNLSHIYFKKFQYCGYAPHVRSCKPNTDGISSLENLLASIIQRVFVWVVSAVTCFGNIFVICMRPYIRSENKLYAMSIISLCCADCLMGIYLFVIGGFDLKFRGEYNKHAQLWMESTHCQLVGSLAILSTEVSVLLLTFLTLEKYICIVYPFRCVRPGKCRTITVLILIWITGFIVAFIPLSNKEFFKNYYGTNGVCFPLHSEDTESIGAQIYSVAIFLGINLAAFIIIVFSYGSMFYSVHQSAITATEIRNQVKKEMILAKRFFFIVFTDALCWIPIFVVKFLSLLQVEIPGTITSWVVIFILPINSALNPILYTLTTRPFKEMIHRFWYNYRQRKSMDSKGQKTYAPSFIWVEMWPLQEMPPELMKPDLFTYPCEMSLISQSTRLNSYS
How it was run: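 Intracellular cAMP was quantified by HTRF after a 30 min room-temperature exposure of hRXFP1-HEK293 cells (1500/well) to compound at 0.010 nM–50 µM final, 2% DMSO. Buffer was HBSS with 20 mM HEPES, 0.05% BSA and 0.5 mM IBMX; values came from a 4-parameter logistic fit.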

**Q.** `COc1ncc(C2=NOC3CC(C(C)O)CC23)cc1C(=O)N[C@H]1[C@@H](C(=O)Nc2ccc(F)c(C(F)(F)F)c2)[C@H]2CC[C@@H]1/C2=C\CCC(F)(F)F` (stereo partly drawn) [Example 124, N-((1R,2R,3S,4R,Z)-3-((4-fluoro-3-(trifluoromethyl)phenyl)carbamoyl)-7-(4,4,4-trifluorobutylidene)bicyclo[2.2.1]heptan-2-yl)-5-(5-(1-hydroxyethyl)-3a,5,6,6a-tetrahydro-4H-cyclopenta[d]isoxazol-3-yl)-2-methoxynicotinamide] was tested. Which EC50 did it give?
**A.** 3.6 nM

**Q.** Which EC50 does the source give for `COc1ncc(C2=NOC3OCCCC23)cc1C(=O)N[C@H]1[C@@H](C(=O)Nc2ccc(F)c(C(F)(F)F)c2)[C@H]2CC[C@@H]1/C2=C\C1CCCC1` (stereo partly drawn) [Example 125, N-((1R,2R, 3S,4R,Z)-7-(cyclopentyl-methylene)-3-((4-fluoro-3-(trifluoromethyl)phenyl)carbamoyl)bicyclo[2.2.1]heptan-2-yl)-2-methoxy-5-(3a,5,6,7a-tetrahydro-4H-pyrano[3,2-d]isoxazol-3-yl)nicotinamide] here?
**A.** 3.6 nM

**Q.** For `COc1ncc(C2=NOC3CC(O)CC23)cc1C(=O)N[C@H]1[C@@H](C(=O)Nc2ccc(F)c(C(F)(F)F)c2)[C@H]2CC[C@@H]1/C2=C\C1CCCC1` (stereo partly drawn) [Example 126, N-((1R,2R,3S,4R,Z)-7-(cyclopentylmethylene)-3-((4-fluoro-3-(trifluoromethyl)phenyl)carbamoyl)bicyclo[2.2.1]heptan-2-yl)-5-(5-hydroxy-3a,5,6,6a-tetrahydro-4H-cyclopenta[d]isoxazol-3-yl)-2-methoxynicotinamide], which EC50 is on record?
**A.** 4.2 nM

**Q.** Which EC50 does the source give for `COc1ncc(C2=NOC3CC(C(O)C(F)(F)F)CC23)cc1C(=O)N[C@H]1[C@@H](C(=O)Nc2ccc(F)c(C(F)(F)F)c2)[C@H]2CC[C@@H]1/C2=C\C(C)C` (stereo partly drawn) [Example 127, N-((1R,2R,3S,4R,Z)-3-((4-fluoro-3-(trifluoromethyl)phenyl)carbamoyl)-7-(2-methylpropylidene)bicyclo[2.2.1]heptan-2-yl)-2-methoxy-5-(5-(2,2,2-trifluoro-1-hydroxyethyl)-3a,5,6,6a-tetrahydro-4H-cyclopenta [d]isoxazol-3-yl)nicotinamide] here?
**A.** 4.3 nM

**Q.** Which EC50 does the source give for `COc1ncc(C2=NOC3CC(C(C)O)CC23)cc1C(=O)N[C@H]1[C@@H](C(=O)Nc2ccc(F)c(C(F)(F)F)c2)[C@H]2CC[C@@H]1/C2=C\C1CCCC1` (stereo partly drawn) [Example 128, N-((1R,2R,3S,4R,Z)-7-(cyclopentylmethylene)-3-((4-fluoro-3-(trifluoromethyl)phenyl)carbamoyl)bicyclo[2.2.1]heptan-2-yl)-5-(5-(1-hydroxyethyl)-3a,5,6,6a-tetrahydro-4H-cyclopenta[d]isoxazol-3-yl)-2-methoxynicotinamide] here?
**A.** 4.9 nM

**Q.** How did the EC50 turn out when `COc1ncc(C2=NOC3CC(C(O)C(F)(F)F)CC23)cc1C(=O)N[C@H]1[C@@H](C(=O)Nc2ccc(F)c(C(F)(F)F)c2)[C@H]2CC[C@@H]1/C2=C\CC(O)C(F)(F)F` (stereo partly drawn) [Example 129, N-((1R,2R,3S,4R,Z)-3-((4-fluoro-3-(trifluoromethyl)phenyl)carbamoyl)-7-(4,4,4-trifluoro-3-hydroxybutylidene)bicyclo[2.2.1]heptan-2-yl)-2-methoxy-5-(5-(2,2,2-trifluoro-1-hydroxyethyl)-3a,5,6,6a-tetrahydro-4H-cyclopenta[d]isoxazol-3-yl)nicotinamide] was run?
**A.** 5 nM

**Q.** `COc1ncc(C2=NOC3CC(C(O)C(F)(F)F)CC23)cc1C(=O)N[C@H]1[C@@H](C(=O)Nc2ccc(F)c(C(F)(F)F)c2)[C@H]2CC[C@@H]1/C2=C\C1CC1` (stereo partly drawn) [Example 130, N-((1R,2R,3S,4R,Z)-7-(cyclopropylmethylene)-3-((4-fluoro-3-(trifluoromethyl)phenyl)carbamoyl)bicyclo[2.2.1]heptan-2-yl)-2-methoxy-5-(5-(2,2,2-trifluoro-1-hydroxyethyl)-3a,5,6,6a-tetrahydro-4H-cyclopenta[d]isoxazol-3-yl)nicotinamide] was tested. Which EC50 did it give?
**A.** 1.2 nM

**Q.** Which EC50 does the source give for `COc1ncc(C2=NOC3CC(C(O)C(F)(F)F)CC23)cc1C(=O)N[C@H]1[C@@H](C(=O)Nc2ccc(F)c(C(F)(F)F)c2)[C@H]2CC[C@@H]1/C2=C\C1CC1` (stereo partly drawn) [Example 131, N-((1R,2R,3S,4R,Z)-7-(cyclopropyl-methylene)-3-((4-fluoro-3-(trifluoromethyl)phenyl)carbamoyl)bicyclo[2.2.1]heptan-2-yl)-2-methoxy-5-(5-(2,2,2-trifluoro-1-hydroxyethyl)-3a,5,6,6a-tetrahydro-4H-cyclopenta[d]isoxazol-3-yl)nicotinamide] here?
**A.** 1.6 nM

**Q.** How did the EC50 turn out when `COc1ncc(C2=NO[C@@H]3C[C@H](CO)CN23)cc1C(=O)N[C@@H]1C2CCC(/C2=C/C2CC2)[C@@H]1C(=O)Nc1ccc(F)c(C(F)(F)F)c1` (stereo partly drawn) [Example 132, N-((1R,2R,3S,4R,Z)-7-(cyclopropyl-methylene)-3-((4-fluoro-3-(trifluoromethyl)phenyl)carbamoyl)bicyclo[2.2.1]heptan-2-yl)-5-((6S,7aR)-6-(hydroxymethyl)-5,6,7,7a-tetrahydropyrrolo [1,2-d][1,2,4]oxadiazo 1-3-yl)-2-methoxynicotinamide] was run?
**A.** 1.8 nM

**Q.** How did the EC50 turn out when `COc1ncc(C2=NO[C@@H]3C[C@H](CO)CN23)cc1C(=O)N[C@@H]1C2CCC(/C2=C/C2CCCC2)[C@@H]1C(=O)Nc1ccc(F)c(C(F)(F)F)c1` (stereo partly drawn) [Example 133, N-((1R,2R,3S,4R,Z)-7-(cyclopentyl-methylene)-3-((4-fluoro-3-(trifluoromethyl)phenyl)carbamoyl)bicyclo[2.2.1]heptan-2-yl)-5-((6S,7aR)-6-(hydroxymethyl)-5,6,7,7a-tetrahydropyrrolo [1,2-d][1,2,4]oxadiazo 1-3-yl)-2-methoxynicotinamide] was run?
**A.** 2.1 nM

**Q.** With `COc1ncc(C2=NO[C@H]3C[C@H](C#N)CN23)cc1C(=O)N[C@@H]1C2CCC(/C2=C/C2CC2)[C@@H]1C(=O)Nc1ccc(F)c(C(F)(F)F)c1` (stereo partly drawn) [Example 134, 5-((6S,7aS)-6-cyano-5,6,7,7a-tetrahydropyrrolo [1,2-d][1,2,4]oxadiazo 1-3-yl)-N-((1R,2R,3S,4R,Z)-7-(cyclopropyl-methylene)-3-((4-fluoro-3-(trifluoromethyl)phenyl)carbamoyl)bicyclo[2.2.1]heptan-2-yl)-2-methoxynicotinamide] as the compound, how does the EC50 read?
**A.** 3.2 nM

**Q.** Which EC50 does the source give for `COc1ncc(C2=NOC3CC(C(O)C(F)(F)F)CC23)cc1C(=O)N[C@H]1[C@@H](C(=O)Nc2ccc(F)c(C(F)(F)F)c2)[C@H]2CC[C@@H]1/C2=C\C1CC1` (stereo partly drawn) [Example 135, N-((1R,2R,3S,4R,Z)-7-(cyclopropyl-methylene)-3-((4-fluoro-3-(trifluoromethyl)phenyl)carbamoyl)bicyclo[2.2.1]heptan-2-yl)-2-methoxy-5-(5-(2,2,2-trifluoro-1-hydroxyethyl)-3a,5,6,6a-tetrahydro-4H-cyclopenta[d]isoxazol-3-yl)nicotinamide] here?
**A.** 4 nM

**Q.** How did the EC50 turn out when `COc1ncc(C2=NOC3COCC23)cc1C(=O)N[C@H]1[C@@H](C(=O)Nc2ccc(F)c(C(F)(F)F)c2)[C@H]2CC[C@@H]1/C2=C\C1CCCC1` (stereo partly drawn) [Example 136, N-((1R,2R,3S,4R,Z)-7-(cyclopentyl-methylene)-3-((4-fluoro-3-(trifluoromethyl)phenyl)carbamoyl)bicyclo[2.2.1]heptan-2-yl)-2-methoxy-5-(3a,4,6,6a-tetrahydrofuro[3,4-d]isoxazol-3-yl)nicotinamide] was run?
**A.** 2.5 nM

**Q.** With `COc1ncc(C2=NOC3COCC23)cc1C(=O)N[C@H]1[C@@H](C(=O)N[C@H](C)C2(C)CC2)[C@H]2CC[C@@H]1/C2=C\C1CC1` (stereo partly drawn) [Example 137, N-((1R,2R,3S,4R,Z)-7-(cyclopropyl-methylene)-3-(((R)-1-(1-methylcyclopropyl)ethyl)carbamoyl)bicyclo[2.2.1]heptan-2-yl)-2-methoxy-5-(3a,4,6,6a-tetrahydrofuro[3,4-d]isoxazol-3-yl)nicotinamide] as the compound, how does the EC50 read?
**A.** 3 nM

**Q.** With `COc1ncc(C2=NOC3CC(O)CC23)cc1C(=O)N[C@H]1[C@@H](C(=O)Nc2ccc(F)c(C(F)(F)F)c2)[C@H]2CC[C@@H]1/C2=C\C1CC1` (stereo partly drawn) [Example 138, N-((1R,2R,3S,4R,Z)-7-(cyclopropyl-methylene)-3-((4-fluoro-3-(trifluoromethyl)phenyl)carbamoyl)bicyclo[2.2.1]heptan-2-yl)-5-(5-hydroxy-3a,5,6,6a-tetrahydro-4H-cyclopenta[d]isoxazol-3-yl)-2-methoxynicotinamide] as the compound, how does the EC50 read?
**A.** 4.8 nM

**Q.** Which EC50 does the source give for `COc1ncc(C2=NOC3CC(CO)CC23)cc1C(=O)N[C@H]1[C@@H](C(=O)Nc2ccc(F)c(C(F)(F)F)c2)[C@H]2CC[C@@H]1/C2=C\CCC(F)(F)F` (stereo partly drawn) [Example 139, N-((1R,2R,3S,4R,Z)-3-((4-fluoro-3-(trifluoromethyl)phenyl)carbamoyl)-7-(4,4,4-trifluorobutylidene)bicyclo[2.2.1]heptan-2-yl)-5-(5-(hydroxymethyl)-3a,5,6,6a-tetrahydro-4H-cyclopenta[d]isoxazol-3-yl)-2-methoxynicotinamide] here?
**A.** 2.9 nM
